Measured values taken from ChEMBL document CHEMBL3112474, “Discovery of substituted lactams as novel dual orexin receptor antagonists. Synthesis, preliminary structure-activity relationship studies and efforts towards improved metabolic stability and pharmacokinetic properties. Part 1” (Bioorg Med Chem Lett, 2014).

Experiments:
Orexin receptor type 2 = biological target: T1, Orexin receptor type 2 (Homo sapiens, UniProt O43614); test: Antagonist activity at human orexin 2 receptor expressed in CHO cells assessed as inhibition of orexin-A-induced calcium mobilization by FLIPR assay; assay type: functional, cell-based
T1 sequence (O43614 whole entry): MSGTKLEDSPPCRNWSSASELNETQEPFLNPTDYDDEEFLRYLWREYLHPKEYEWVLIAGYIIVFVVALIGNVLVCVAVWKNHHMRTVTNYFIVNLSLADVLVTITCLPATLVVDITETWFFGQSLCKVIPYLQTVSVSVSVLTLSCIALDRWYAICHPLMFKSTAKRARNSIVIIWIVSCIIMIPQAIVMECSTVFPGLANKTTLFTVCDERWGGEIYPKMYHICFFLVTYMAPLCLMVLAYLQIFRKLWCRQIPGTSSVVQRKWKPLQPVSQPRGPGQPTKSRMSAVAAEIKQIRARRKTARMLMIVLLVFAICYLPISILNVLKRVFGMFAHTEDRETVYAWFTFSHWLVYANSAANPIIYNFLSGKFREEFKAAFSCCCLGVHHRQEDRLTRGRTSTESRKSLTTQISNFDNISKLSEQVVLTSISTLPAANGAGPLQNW

[1] = Intrinsic clearance in human liver microsomes at 1 uM; assay type: ADME; conditions: read-out: CLH
[2] = biological target: T2, Orexin/Hypocretin receptor type 1 (Homo sapiens, UniProt O43613); test: Antagonist activity at human orexin 1 receptor expressed in CHO cells assessed as inhibition of orexin-A-induced calcium mobilization by FLIPR assay; assay type: functional, cell-based
T2 sequence (O43613 whole entry): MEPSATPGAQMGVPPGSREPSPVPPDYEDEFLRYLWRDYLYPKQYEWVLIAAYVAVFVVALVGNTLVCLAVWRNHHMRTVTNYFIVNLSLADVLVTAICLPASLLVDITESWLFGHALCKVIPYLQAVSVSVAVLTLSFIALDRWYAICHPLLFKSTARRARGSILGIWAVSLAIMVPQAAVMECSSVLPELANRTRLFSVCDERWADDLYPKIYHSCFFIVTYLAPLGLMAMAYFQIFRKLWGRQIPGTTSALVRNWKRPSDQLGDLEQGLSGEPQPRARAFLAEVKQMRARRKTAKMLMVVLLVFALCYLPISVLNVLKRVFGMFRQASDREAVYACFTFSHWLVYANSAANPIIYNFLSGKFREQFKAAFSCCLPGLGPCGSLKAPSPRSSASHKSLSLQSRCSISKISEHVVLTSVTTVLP

Cytochrome P450 2C9 = Cytochrome P450 2C9 (Homo sapiens, UniProt P11712); test: Inhibition of CYP2C9 (unknown origin); assay type: ADME
[3] = Intrinsic clearance in rat liver microsomes at 1 uM; assay type: ADME; conditions: read-out: CLH
Cytochrome P450 2D6 = Cytochrome P450 2D6 (Homo sapiens, UniProt P10635); test: Inhibition of CYP2D6 (unknown origin); assay type: ADME
Cerebrospinal fluid = test: Drug level in Wistar rat cerebrospinal fluid at 100 mg/kg, po; assay type: ADME, organism-based; design: dose 100 mg/kg, route oral; conditions: in vivo
[4] = Drug level in Wistar rat brain at 100 mg/kg, po after 3 hrs; assay type: ADME, organism-based; design: dose 100 mg/kg, route oral; conditions: read-out: Drug uptake
Cytochrome P450 3A4 = Cytochrome P450 3A4 (Homo sapiens, UniProt P08684); test: Inhibition of CYP3A4 (unknown origin); assay type: ADME
MDR1 [5] = test: Apparent passive permeability across apical to basolateral side in MDCK cells expressing human MDR1; assay type: ADME, cell-based, Canis lupus familiaris; conditions: dog
[6] = Plasma concentration in Wistar rat at 100 mg/kg, po after 3 hrs; assay type: ADME, organism-based; design: dose 100 mg/kg, route oral
MDR1 [7] = test: Apparent passive permeability across basolateral to apical side in MDCK cells expressing human MDR1; assay type: ADME, cell-based, Canis lupus familiaris; conditions: dog
[8] = Ratio of drug level in brain to plasma in Wistar rat at 100 mg/kg, po after 3 hrs; assay type: ADME, organism-based; design: dose 100 mg/kg, route oral; conditions: read-out: BPR
[9] = Half life in human liver microsomes; assay type: ADME

Chain of Cytochrome P450 2C9 (P11712 whole entry): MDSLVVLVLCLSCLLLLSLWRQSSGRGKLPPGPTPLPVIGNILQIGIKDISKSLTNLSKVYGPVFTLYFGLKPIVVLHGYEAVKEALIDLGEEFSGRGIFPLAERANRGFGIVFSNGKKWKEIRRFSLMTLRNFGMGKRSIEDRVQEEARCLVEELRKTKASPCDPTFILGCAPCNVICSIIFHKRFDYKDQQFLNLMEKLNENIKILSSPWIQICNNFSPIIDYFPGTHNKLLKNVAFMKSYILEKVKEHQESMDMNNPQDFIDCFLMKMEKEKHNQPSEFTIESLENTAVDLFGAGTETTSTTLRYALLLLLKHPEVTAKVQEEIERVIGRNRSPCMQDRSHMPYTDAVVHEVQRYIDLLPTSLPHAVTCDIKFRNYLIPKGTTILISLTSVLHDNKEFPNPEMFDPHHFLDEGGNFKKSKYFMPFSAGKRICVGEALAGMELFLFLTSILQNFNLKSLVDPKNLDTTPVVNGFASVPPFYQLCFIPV
Chain of Cytochrome P450 3A4 (P08684 whole entry): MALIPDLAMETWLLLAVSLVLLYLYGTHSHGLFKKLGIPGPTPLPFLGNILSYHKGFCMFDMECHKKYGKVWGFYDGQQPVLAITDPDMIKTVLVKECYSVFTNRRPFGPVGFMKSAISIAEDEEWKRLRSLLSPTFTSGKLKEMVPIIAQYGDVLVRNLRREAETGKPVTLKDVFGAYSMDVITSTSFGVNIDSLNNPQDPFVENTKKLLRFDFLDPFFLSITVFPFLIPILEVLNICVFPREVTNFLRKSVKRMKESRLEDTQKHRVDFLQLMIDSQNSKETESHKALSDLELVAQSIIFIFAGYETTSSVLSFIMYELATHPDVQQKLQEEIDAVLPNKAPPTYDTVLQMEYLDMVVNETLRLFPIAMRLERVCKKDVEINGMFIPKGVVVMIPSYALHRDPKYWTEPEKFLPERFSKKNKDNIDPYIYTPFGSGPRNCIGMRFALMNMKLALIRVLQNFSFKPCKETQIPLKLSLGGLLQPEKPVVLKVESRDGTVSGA
Chain of Cytochrome P450 2D6 (P10635 whole entry): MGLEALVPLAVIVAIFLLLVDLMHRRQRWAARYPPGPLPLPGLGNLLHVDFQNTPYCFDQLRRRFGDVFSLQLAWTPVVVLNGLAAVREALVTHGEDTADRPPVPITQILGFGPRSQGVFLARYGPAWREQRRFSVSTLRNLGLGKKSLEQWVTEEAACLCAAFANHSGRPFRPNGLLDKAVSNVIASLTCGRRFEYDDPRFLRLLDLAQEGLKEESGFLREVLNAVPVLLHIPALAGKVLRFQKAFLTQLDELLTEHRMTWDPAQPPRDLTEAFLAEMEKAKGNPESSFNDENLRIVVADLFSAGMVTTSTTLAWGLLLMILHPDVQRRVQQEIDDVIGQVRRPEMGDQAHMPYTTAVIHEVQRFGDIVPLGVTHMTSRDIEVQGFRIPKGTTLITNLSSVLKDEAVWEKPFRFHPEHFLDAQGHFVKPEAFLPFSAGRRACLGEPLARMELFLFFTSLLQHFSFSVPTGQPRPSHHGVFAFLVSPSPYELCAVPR

Row | SMILES | microsomal CLint at 1 µM [1] [µL/min/mg] | IC50 (Orexin receptor type 2) [nM] | IC50 [2] [nM] | also measured
1 | COc1cccc(F)c1C1CCCC(=O)N1Cc1ccc(OC(F)(F)F)cc1 (racemic) | – | 161 | – | –
2 | COc1cccc(OC)c1C1CCCC(=O)N1Cc1ccccc1 (racemic) | – | 416 | 2420 | –
3 | COc1cccc(OC)c1C1CCCC(=O)N1Cc1ccc2ccccc2n1 (single isomer, unassigned) | > 1250 | – | – | IC50 (Cytochrome P450 2C9): > 30000 nM; microsomal CLint at 1 µM [3]: > 1250 µL/min/mg; IC50 (Cytochrome P450 2D6): > 30000 nM; Drug uptake (Cerebrospinal fluid): 23 ng/mL; concentration at 3 h [4]: 108 ng/g; IC50 (Cytochrome P450 3A4): > 30000 nM; Papp A→B (MDR1 [5]): 24.2 ×10⁻⁶ cm/s; concentration at 3 h [6]: 140 ng/mL; Papp B→A (MDR1 [7]): 63.2 ×10⁻⁶ cm/s; Kp at 3 h [8]: 0.8
4 | COc1cccc(OC)c1C1SCC(=O)N1Cc1ccc(OC(F)(F)F)cc1 (racemic) | – | 16 | 155 | –
5 | COc1cccc(OC)c1C1C2CC2C(=O)N1Cc1ccc(OC(F)(F)F)cc1 (mixture of isomers) | – | 1070 | 1150 | –
6 | COc1cccc(OC)c1C1CCCC(=O)N1Cc1ccc2ccccc2n1 (racemic) | – | – | 49 | –
7 | COc1cccc(OC)c1C1CCCC(=O)N1Cc1ccc(OC(F)(F)F)cc1 (racemic) | > 1250 | 25 | 284 | concentration at 3 h [4]: 153 ng/g; concentration at 3 h [6]: 94 ng/mL; Kp at 3 h [8]: 1.6
8 | COc1cc(OC)c(C2CCCCN2Cc2ccc(OC(F)(F)F)cc2)c(OC)c1 (racemic) | – | > 10000 | 1590 | –
9 | COc1cccc(OC)c1C1CCCC(=O)N1Cc1ccc(Oc2ccccc2)cc1 (racemic) | – | 29 | 531 | –
10 | COc1cccc(OC)c1C1CCCC(=O)N1Cc1ccc2sc(C)nc2c1 (racemic) | 860 | 12 | 32 | –
11 | COc1cccc(OC)c1C1CCCCC(=O)N1Cc1ccc(OC(F)(F)F)cc1 (racemic) | > 1250 | 74 | 264 | –
12 | COc1cccc(OC)c1C1c2ccccc2C(=O)N1Cc1ccc(OC(F)(F)F)cc1 (racemic) | – | > 10000 | > 10000 | –
13 | COc1cccc(OC)c1C1CCCC(=O)N1CCc1ccccc1 (racemic) | – | 1330 | 9700 | –
14 | COc1cccc(OC)c1C1CCCC(=O)N1c1ccccc1 (racemic) | – | > 10000 | > 10000 | –
15 | COc1cccc(OC)c1C1CCCC(=O)N1Cc1csc(-c2ccccc2)n1 (racemic) | > 1250 | 6 | 45 | –
16 | COc1ccc2nc(C)oc2c1C1CCCC(=O)N1Cc1cccc(-c2ccccc2)c1 (racemic) | > 1250 | 93 | 54 | –
17 | COc1cccc(OC)c1C1CCCC(=O)N1Cc1cccc(-c2ccccc2)c1 (racemic) | > 1250 | 28 | 65 | –
18 | COc1cccc(OC)c1C1CCCC(=O)N1C(C)c1ccc(OC(F)(F)F)cc1 (mixture of isomers) | > 1250 | 21 | 142 | –
19 | COc1cccc(OC)c1C1CC(C)C(=O)N1Cc1ccc2oc3ccccc3c2c1 (mixture of isomers) | 260 | 9 | 4 | –
20 | COc1ccc2nc(C)oc2c1C1CCCC(=O)N1Cc1cccc(-c2csc(C)n2)c1 (racemic) | > 1250 | 65 | 17 | –
21 | COc1cccc(OC)c1C1CCCC(=O)N1Cc1cnc2ccccc2c1 (racemic) | – | 217 | 675 | –
22 | COc1cccc(OC)c1C1COC(=O)N1Cc1ccc(OC(F)(F)F)cc1 (racemic) | – | 771 | 2650 | –

Continued, in another order:

Row | microsomal CLint at 1 µM [1] [µL/min/mg] | SMILES | IC50 (Orexin receptor type 2) [nM] | IC50 [2] [nM] | also measured
23 | > 1250 | COc1cccc(OC)c1C1CCCC(=O)N1Cc1ccnc(-c2ccccc2)c1 (racemic) | – | – | –
24 | > 1250 | COc1cccc(OC)c1C1CCCC(=O)N1Cc1cccc(-c2ncccn2)c1 (configuration not stated) | – | – | –
25 | > 1250 | COc1cccc(OC)c1C1COCC(=O)N1Cc1ccc(OC(F)(F)F)cc1 (racemic) | – | – | –
26 | 649 | COc1cccc(OC)c1C1CCC(C)C(=O)N1Cc1ccc(OC(F)(F)F)cc1 (mixture of isomers) | – | – | –
27 | 257 | COc1cccc(OC)c1[C@H]1C[C@H](C)C(=O)N1Cc1ccc(OC(F)(F)F)cc1 (racemic) | – | – | –
28 | 1200 | COc1cccc(OC)c1C1CCCC(=O)N1Cc1ccc2oc3ccccc3c2c1 (racemic) | – | – | –
29 | > 1250 | COc1cccc(OC)c1C1CCCC(=O)N1Cc1ccc2ccccc2c1 (racemic) | – | – | half-life [9]: < 1 min
30 | > 1250 | COc1cccc(OC)c1C1CCCC(=O)N1Cc1ccnc(-n2cccn2)c1 (racemic) | – | – | –
31 | > 1250 | COc1cccc(OC)c1C1CCCC(=O)N1Cc1cccc(-n2nccn2)c1 (racemic) | – | – | –
32 | 88 | COc1cccc(OC)c1C1CC(C)C(=O)N1Cc1ccc2sc(C)nc2c1 (mixture of isomers) | – | – | –
33 | > 1250 | COc1cccc(OC)c1C1CCCC(=O)N1Cc1cccc(-c2csc(C)n2)c1 (racemic) | – | – | –
34 | 1130 | COc1ccnc(OC)c1C1CCCC(=O)N1Cc1ccc2oc3ccccc3c2c1 (racemic) | – | – | –
35 | 912 | COc1ccnc(OC)c1C1CCCC(=O)N1Cc1csc(-c2ccccc2)n1 (racemic) | – | – | –
36 | > 1250 | COc1cccc(OC)c1C1CCCC(=O)N1Cc1cccc(-c2ccccn2)c1 (racemic) | – | – | –
37 | 645 | COc1cccc(OC)c1C1CC(C)CC(=O)N1Cc1ccc(OC(F)(F)F)cc1 (mixture of isomers) | – | – | –
38 | 670 | COc1cccc(OC)c1C1CCC(=O)N1Cc1ccc(OC(F)(F)F)cc1 (racemic) | – | – | –
39 | > 1250 | COc1cccc(OC)c1C1CCCC(=O)N1Cc1ccnc(-c2nccs2)c1 (racemic) | – | – | –
40 | > 1250 | COc1cccc(OC)c1C1CCCC(=O)N1Cc1cccc(-c2ccccc2)n1 (racemic) | – | – | –
